Reference: patent US10821115B2, “Compounds that inhibit Mcl-1 protein” (priority 2017, dated 2020)
Where two headings read alike, the source gives them in different places.

Key:
[1] = target: recombinant human Mcl-1 (residues 171-327) / Bim interaction (Homo sapiens (Human), UniProt Q07820); test: biochemical; format: binding; conditions: 0.1 nM Mcl-1(171-327), 0.05 nM biotin-Bim (51-76); read-out: Mcl-1 HTRF IC50
[2] = tested on: human multiple myeloma cell line, OPM-2; test: Cell viability assay (OPM-2 10 FBS), CellTiter-Glo; format: cell-based
Method in brief: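 Steps: plate cells at 3000/well in 10% FBS growth medium, add serially diluted compound, incubate 16 h at 37 °C with 5% CO2, add detection reagent and read luminescence after 25 min. A 4-parameter logistic model gives IC50.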

[3] = Homo sapiens, OPM-2, 16 h, read-out: OPM-2 10% FBS IC50 IP, OPM-2 cells, 10% FBS, 16 h incubation

recombinant human Mcl-1 (residues 171-327) / Bim interaction, sequence (Q07820 171-327): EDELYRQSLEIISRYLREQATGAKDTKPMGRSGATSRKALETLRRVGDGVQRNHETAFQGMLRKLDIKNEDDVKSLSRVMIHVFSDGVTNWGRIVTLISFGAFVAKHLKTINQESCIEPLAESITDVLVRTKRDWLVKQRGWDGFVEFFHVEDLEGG

Row | Structure (SMILES) | IC50 [1] [nM] | IC50 ([2]; read-out: OPM-2 10% FBS IC50 IP, OPM-2 cells, 10% FBS, 16 h incubation) [nM] | IC50 [2, 3] [nM]
1 | CO[C@]1(CN2CCN3CCC(F)(F)C[C@@H]3C2)/C=C/C[C@H](C)[C@@H](C)S(=O)(=O)NC(=O)c2ccc3c(c2)N(C[C@@H]2CC[C@H]21)C[C@@]1(CCCc2cc(Cl)ccc21)CO3 [Example 292] | 0.356 | 399 | 
2 | CO[C@@]1(CN2CCN(c3ccc(B(O)O)c(C(C)=O)c3)CC2)/C=C/C[C@H](C)[C@@H](C)S(=O)(=O)NC(=O)c2ccc3c(c2)N(C[C@@H]2CC[C@H]21)C[C@@]1(CCCc2cc(Cl)ccc21)CO3 [Example 296, (2-acetyl-4-(4-(((1S,3′R,6′R,7′S,8′E,11′S, 12′R)-6-chloro-7′-methoxy-11′,12′-dimethyl-13′,13′-dioxido-15′-oxo-3,4-dihydro-2H-spiro[naphthalene-1,22′-[20]oxa[13]thia[1,14]diazatetracyclo [14.7.2.0~3,6~.0~19,24~]pentacosa[8,16,18,24]tetraen]-7′-yl)methyl)-1-piperazinyl)phenyl)boronic acid] | 0.211 |  | 1310
3 | COCC(C)(C)N1CCN(C[C@]2(OC)/C=C/C[C@H](C)[C@@H](C)S(=O)(=O)NC(=O)c3ccc4c(c3)N(C[C@@H]3CC[C@H]32)C[C@@]2(CCCc3cc(Cl)ccc32)CO4)CC1 [Example 297, (1S,3′R,6′R,7′S,8′E,11′S,12′R)-6-chloro-7′-methoxy-7′-((4-(2-methoxy-1,1-dimethylethyl)-1-piperazinyl)methyl)-11′,12′-dimethyl-3,4-dihydro-2H,15′H-spiro[naphthalene-1,22′-[20]oxa[13]thia[1,14]diazatetracyclo [14.7.2.0~3,6~.0~19,24~]pentacosa[8,16,18,24]tetraen]-15′-one 13′,13′-dioxide] | 0.128 |  | 66
4 | CO[C@@]1(CN2CCN(CCO)CC2)/C=C/C[C@H](C)[C@@H](C)S(=O)(=O)NC(=O)c2ccc3c(c2)N(C[C@@H]2CC[C@H]21)C[C@@]1(CCCc2cc(Cl)ccc21)CO3 [Example 300, (1S,3′R,6′R,7′S,8′E,11′S,12′R)-6-chloro-7′-((4-(2-hydroxyethyl)-1-piperazinyl)methyl)-7′-methoxy-11′,12′-dimethyl-3,4-dihydro-2H,15′H-spiro[naphthalene-1,22′-[20]oxa[13]thia[1,14]diazatetracyclo [14.7.2.0~3,6~.0~19,24~]pentacosa[8,16,18,24]tetraen]-15′-one 13′,13′-dioxide] | 0.165 |  | 284
5 | CCCCN1CCN(C[C@]2(OC)/C=C/C[C@H](C)[C@@H](C)S(=O)(=O)NC(=O)c3ccc4c(c3)N(C[C@@H]3CC[C@H]32)C[C@@]2(CCCc3cc(Cl)ccc32)CO4)CC1 [Example 301, (1S,3′R,6′R,7′S,8′E,11′S,12′R)-7′-((4-butyl-1-piperazinyl)methyl)-6-chloro-7′-methoxy-11′,12′-dimethyl-3,4-dihydro-2H,15′H-spiro[naphthalene-1,22′-[20]oxa[13]thia[1,14]diazatetracyclo [14.7.2.0~3,6~.0~19,24~]pentacosa[8,16,18,24]tetraen]-15′-one 13′,13′-dioxide] | 0.196 |  | 141
6 | COCCCN1CCN(C[C@]2(OC)/C=C/C[C@H](C)[C@@H](C)S(=O)(=O)NC(=O)c3ccc4c(c3)N(C[C@@H]3CC[C@H]32)C[C@@]2(CCCc3cc(Cl)ccc32)CO4)CC1 [Example 302, (1S,3′R,6′R,7′S,8′E,11′S,12′R)-6-chloro-7′-methoxy-7′-((4-(3-methoxypropyl)-1-piperazinyl)methyl)-11′,12′-dimethyl-3,4-dihydro-2H,15′H-spiro[naphthalene-1,22′-[20]oxa[13]thia[1,14]diazatetracyclo [14.7.2.0~3,6~.0~19,24~]pentacosa[8,16,18,24]tetraen]-15′-one 13′,13′-dioxide] | 0.107 |  | 84
7 | CCOCCN1CCN(C[C@]2(OC)/C=C/C[C@H](C)[C@@H](C)S(=O)(=O)NC(=O)c3ccc4c(c3)N(C[C@@H]3CC[C@H]32)C[C@@]2(CCCc3cc(Cl)ccc32)CO4)CC1 [Example 303, (1S,3′R,6′R,7′S,8′E,11′S,12′R)-6-chloro-7′-((4-(2-ethoxyethyl)-1-piperazinyl)methyl)-7′-methoxy-11′,12′-dimethyl-3,4-dihydro-2H,15′H-spiro[naphthalene-1,22′-[20]oxa[13]thia[1,14]diazatetracyclo [14.7.2.0~3,6~.0~19,24~]pentacosa[8,16,18,24]tetraen]-15′-one 13′,13′-dioxide] | 0.15 |  | 101
8 | COCC(COC)N1CCN(C[C@@]2(OC)/C=C/C[C@H](C)[C@@H](C)S(=O)(=O)NC(=O)c3ccc4c(c3)N(C[C@@H]3CC[C@H]32)C[C@@]2(CCCc3cc(Cl)ccc32)CO4)CC1 [Example 304, (1S,3′R,6′R,7′R,8′E,11′S,12′R)-6-chloro-7′-methoxy-7′-((4-(2-methoxy-1-(methoxymethyl)ethyl)-1-piperazinyl)methyl)-11′,12′-dimethyl-3,4-dihydro-2H,15′H-spiro[naphthalene-1,22′-[20]oxa[13]thia[1,14]diazatetracyclo [14.7.2.0~3,6~.0~19,24~]pentacosa[8,16,18,24]tetraen]-15′-one 13′,13′-dioxide] | 0.226 |  | 239
9 | CO[C@@]1(CN2CCN(c3cncnc3)CC2)/C=C/C[C@H](C)[C@@H](C)S(=O)(=O)NC(=O)c2ccc3c(c2)N(C[C@@H]2CC[C@H]21)C[C@@]1(CCCc2cc(Cl)ccc21)CO3 [Example 305, (1S,3′R,6′R,7′S,8′E,11′S,12′R)-6-chloro-7′-methoxy-11′,12′-dimethyl-7′-((4-(5-pyrimidinyl)-1-piperazinyl)methyl)-3,4-dihydro-2H,15′H-spiro[naphthalene-1,22′-[20]oxa[13]thia[1,14]diazatetracyclo [14.7.2.0~3,6~.0~19,24~]pentacosa[8,16,18,24]tetraen]-15′-one 13′,13′-dioxide] | 0.33 |  | 327
10 | CO[C@@]1(CN2CCN(CC(F)F)CC2)/C=C/C[C@H](C)[C@@H](C)S(=O)(=O)NC(=O)c2ccc3c(c2)N(C[C@@H]2CC[C@H]21)C[C@@]1(CCCc2cc(Cl)ccc21)CO3 [Example 306, (1S,3′R,6′R,7′S,8′E,11′S,12′R)-6-chloro-7′-((4-(2,2-difluoroethyl)-1-piperazinyl)methyl)-7′-methoxy-11′,12′-dimethyl-3,4-dihydro-2H,15′H-spiro[naphthalene-1,22′-[20]oxa[13]thia[1,14]diazatetracyclo [14.7.2.0~3,6~.0~19,24~]pentacosa[8,16,18,24]tetraen]-15′-one 13′,13′-dioxide] | 0.282 |  | 246
11 | CO[C@]1(CN2CCN(C(C)(C)C)CC2)/C=C/C[C@H](C)[C@@H](C)S(=O)(=O)NC(=O)c2ccc3c(c2)N(C[C@@H]2CC[C@H]21)C[C@@]1(CCCc2cc(Cl)ccc21)CO3 [Example 307, (1S,3′R,6′R,7′R,8′E,11′S,12′R)-7′-((4-tert-butyl-1-piperazinyl)methyl)-6-chloro-7′-methoxy-11′,12′-dimethyl-3,4-dihydro-2H,15′H-spiro[naphthalene-1,22′-[20]oxa[13]thia[1,14]diazatetracyclo [14.7.2.0~3,6~.0~19,24~]pentacosa[8,16,18,24]tetraen]-15′-one 13′,13′-dioxide] | 0.087 |  | 41
